Assay results: ChEMBL document CHEMBL5113395, “Azetidin-2-one-based small molecules as dual hHDAC6/HDAC8 inhibitors: Investigation of their mechanism of action and impact of dual inhibition profile on cell viability” (Eur J Med Chem, 2022)

How the values were obtained:
Format in all cases: toxicity, tissue-based
[1] = Cardiotoxicity in Langendorff-perfused Wistar rat heart assessed as effect on PQ interval time at 1 uM by ECG analysis (reference value: 45.4+/-3.9 milliseconds)
[2] = Cardiotoxicity in Langendorff-perfused Wistar rat heart assessed as effect on QRS interval time at 0.1 uM by ECG analysis (reference value: 13.3+/-0.6 milliseconds)
[3] = Cardiotoxicity in Langendorff-perfused Wistar rat heart assessed as effect on QT interval time at 1 uM by ECG analysis (reference value: 66.1+/-1.1 milliseconds)
[4] = Cardiotoxicity in Langendorff-perfused Wistar rat heart assessed as effect on HR at 0.1 uM by ECG analysis (reference value: 252.3 +/-10.1 bpm)
[5] = Cardiotoxicity in Langendorff-perfused Wistar rat heart assessed as effect on HR at 1 uM by ECG analysis (reference value: 252.3 +/-10.1 bpm)

Compound `O=C(NO)c1ccc(CNC(=O)N2CCC(N3CC(c4ccccc4)(c4ccccc4)C3=O)CC2)cc1` has a Time [1] of 46.2 ms, a Time [2] of 13.1 ms and a Time [3] of 68.1 ms. The Activity [4] was 258.4 bpm and the Activity [5] was 252 bpm.
